Laboratory results taken from patent publication US20260130395A1, “Water Dispersible Botanical Compositions” (Aquila Black Limited, priority 2021, published 2026).

Assay: Stability of cannabinoid entourage and Vitamin E components of the powder concentrate by LCMSMS
Format: physicochemical
Settings: powder stored at 21-25° C.
Description: At each time period, 0.05 g of powder was dissolved in 10 ml-15 of ethanol, diluted to fall within the analytical range, and injected into the LCMSMS for analysis.

| Compound | Stability of Plant-Derived Cannabinoid Compounds in Powder Concentrate (0 days) [mg/g powder] | Stability of Plant-Derived Cannabinoid Compounds in Powder Concentrate (1 days) [mg/g powder] | Stability of Plant-Derived Cannabinoid Compounds in Powder Concentrate (2 days) [mg/g powder] | Stability of Plant-Derived Cannabinoid Compounds in Powder Concentrate (3 days) [mg/g powder] | Stability of Plant-Derived Cannabinoid Compounds in Powder Concentrate (5 days) [mg/g powder] | Stability of Plant-Derived Cannabinoid Compounds in Powder Concentrate (8 days) [mg/g powder] | Stability of Plant-Derived Cannabinoid Compounds in Powder Concentrate (9 days) [mg/g powder] | Stability of Plant-Derived Cannabinoid Compounds in Powder Concentrate (10 days) [mg/g powder] | Stability of Plant-Derived Cannabinoid Compounds in Powder Concentrate (11 days) [mg/g powder] | Stability of Plant-Derived Cannabinoid Compounds in Powder Concentrate (12 days) [mg/g powder] | Stability of Plant-Derived Cannabinoid Compounds in Powder Concentrate (15 days) [mg/g powder] | Stability of Plant-Derived Cannabinoid Compounds in Powder Concentrate (16 days) [mg/g powder] | Stability of Plant-Derived Cannabinoid Compounds in Powder Concentrate (17 days) [mg/g powder] | Stability of Plant-Derived Cannabinoid Compounds in Powder Concentrate (18 days) [mg/g powder] | Stability of Plant-Derived Cannabinoid Compounds in Powder Concentrate (19 days) [mg/g powder] | Stability of Plant-Derived Cannabinoid Compounds in Powder Concentrate (22 days) [mg/g powder] | Stability of Plant-Derived Cannabinoid Compounds in Powder Concentrate (23 days) [mg/g powder] | Stability of Plant-Derived Cannabinoid Compounds in Powder Concentrate (24 days) [mg/g powder] | Stability of Plant-Derived Cannabinoid Compounds in Powder Concentrate (25 days) [mg/g powder] | Stability of Plant-Derived Cannabinoid Compounds in Powder Concentrate (26 days) [mg/g powder] | further results |
| --- | --- | --- | --- | --- | --- | --- | --- | --- | --- | --- | --- | --- | --- | --- | --- | --- | --- | --- | --- | --- | --- |
| CCCc1cc(O)c2c(c1)OC(C)(C)[C@@H]1CCC(C)=C[C@@H]21 [THCV, delta-9-tetrahydrocannabivarin] | 0.680 | 0.685 | 0.699 | 0.698 | 0.676 | 0.685 | 0.693 | 0.706 | 0.708 | 0.698 | 0.684 | 0.658 | 0.681 | 0.690 | 0.705 | 0.703 | 0.687 | 0.668 | 0.689 | 0.686 | Stability of Plant-Derived Cannabinoid Compounds in Powder Concentrate (29 days): 0.706 mg/g powder; Stability of Plant-Derived Cannabinoid Compounds in Powder Concentrate (30 days): 0.659 mg/g powder; Stability of Plant-Derived Cannabinoid Compounds in Powder Concentrate (60 days): 0.702 mg/g powder; Stability of Plant-Derived Cannabinoid Compounds in Powder Concentrate (90 days): 0.707 mg/g powder; Stability of Plant-Derived Cannabinoid Compounds in Powder Concentrate (120 days): 0.658 mg/g powder; Stability of Plant-Derived Cannabinoid Compounds in Powder Concentrate (150 days): 0.695 mg/g powder; Stability of Plant-Derived Cannabinoid Compounds in Powder Concentrate (180 days): 0.685 mg/g powder; Stability of Plant-Derived Cannabinoid Compounds in Powder Concentrate (210 days): 0.662 mg/g powder; Stability of Plant-Derived Cannabinoid Compounds in Powder Concentrate (240 days): 0.700 mg/g powder; Stability of Plant-Derived Cannabinoid Compounds in Powder Concentrate (270 days): 0.670 mg/g powder; Stability of Plant-Derived Cannabinoid Compounds in Powder Concentrate (300 days): 0.685 mg/g powder; Stability of Plant-Derived Cannabinoid Compounds in Powder Concentrate (330 days): 0.691 mg/g powder; Stability of Plant-Derived Cannabinoid Compounds in Powder Concentrate (360 days): 0.668 mg/g powder; Stability of Plant-Derived Cannabinoid Compounds in Powder Concentrate (390 days): 0.680 mg/g powder; Stability of Plant-Derived Cannabinoid Compounds in Powder Concentrate (420 days): 0.671 mg/g powder; Stability of Plant-Derived Cannabinoid Compounds in Powder Concentrate (450 days): 0.680 mg/g powder; Stability of Plant-Derived Cannabinoid Compounds in Powder Concentrate (480 days): 0.695 mg/g powder; Stability of Plant-Derived Cannabinoid Compounds in Powder Concentrate (510 days): 0.696 mg/g powder; Stability of Plant-Derived Cannabinoid Compounds in Powder Concentrate (540 days): 0.664 mg/g powder; Stability of Plant-Derived Cannabinoid Compounds in Powder Concentrate (570 days): 0.686 mg/g powder |
| C=C(C)[C@@H]1CCC(C)=C[C@H]1c1c(O)cc(CCC)cc1O [CBDV, cannabidivarin] | 0.050 | 0.051 | 0.051 | 0.048 | 0.050 | 0.051 | 0.049 | 0.050 | 0.051 | 0.051 | 0.050 | 0.049 | 0.051 | 0.051 | 0.048 | 0.049 | 0.050 | 0.051 | 0.052 | 0.050 | Stability of Plant-Derived Cannabinoid Compounds in Powder Concentrate (29 days): 0.049 mg/g powder; Stability of Plant-Derived Cannabinoid Compounds in Powder Concentrate (30 days): 0.051 mg/g powder; Stability of Plant-Derived Cannabinoid Compounds in Powder Concentrate (60 days): 0.050 mg/g powder; Stability of Plant-Derived Cannabinoid Compounds in Powder Concentrate (90 days): 0.050 mg/g powder; Stability of Plant-Derived Cannabinoid Compounds in Powder Concentrate (120 days): 0.050 mg/g powder; Stability of Plant-Derived Cannabinoid Compounds in Powder Concentrate (150 days): 0.051 mg/g powder; Stability of Plant-Derived Cannabinoid Compounds in Powder Concentrate (180 days): 0.050 mg/g powder; Stability of Plant-Derived Cannabinoid Compounds in Powder Concentrate (210 days): 0.049 mg/g powder; Stability of Plant-Derived Cannabinoid Compounds in Powder Concentrate (240 days): 0.052 mg/g powder; Stability of Plant-Derived Cannabinoid Compounds in Powder Concentrate (270 days): 0.051 mg/g powder; Stability of Plant-Derived Cannabinoid Compounds in Powder Concentrate (300 days): 0.049 mg/g powder; Stability of Plant-Derived Cannabinoid Compounds in Powder Concentrate (330 days): 0.052 mg/g powder; Stability of Plant-Derived Cannabinoid Compounds in Powder Concentrate (360 days): 0.050 mg/g powder; Stability of Plant-Derived Cannabinoid Compounds in Powder Concentrate (390 days): 0.049 mg/g powder; Stability of Plant-Derived Cannabinoid Compounds in Powder Concentrate (420 days): 0.051 mg/g powder; Stability of Plant-Derived Cannabinoid Compounds in Powder Concentrate (450 days): 0.049 mg/g powder; Stability of Plant-Derived Cannabinoid Compounds in Powder Concentrate (480 days): 0.051 mg/g powder; Stability of Plant-Derived Cannabinoid Compounds in Powder Concentrate (510 days): 0.049 mg/g powder; Stability of Plant-Derived Cannabinoid Compounds in Powder Concentrate (540 days): 0.052 mg/g powder; Stability of Plant-Derived Cannabinoid Compounds in Powder Concentrate (570 days): 0.048 mg/g powder |
